The text below walks through data of ChEMBL document CHEMBL1135958, “Hepatobiliary excretion of dipyrrinone sulfonates in Mrp2-deficient (TR(-)) rats” (Bioorg Med Chem Lett, 2002).

A short description of the series: Pharmacokinetic parameter (Tmax) was estimated. It counts as ADME, organism-based. The following applies: rat, in vivo.

In general, Tmax refers to the time from dosing to the highest level. On to `CCC1=C(C)C(=O)N/C1=C\c1[nH]c(C)c(CCS(=O)(=O)O)c1C`, for which the time of peak concentration (Tmax) is 6 min.
